Here are results for 23 compounds from patent US7998987B2, “Inhibitors of c-Met and uses thereof” (Vertex Pharmaceuticals Incorporated, priority 2005, dated 2011).

The test deals with c-Met (Homo sapiens, UniProt P08581). The test can be described thus: Ki determination for the inhibition of c-Met kinase activity (standard coupled enzyme system). In kind it is biochemical. The following applies: coupled enzyme system, 200 μM ATP, 80 nM c-Met, 30° C.; read-out: c-Met Ki. The gist of the method: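 The kinase (80 nM) turned over polyGluTyr (10 μM) with ATP (200 μM, added to start), coupled to NADH oxidation via pyruvate kinase/lactate dehydrogenase at pH 7.5 HEPES, 1.5% DMSO.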
Chain of c-Met (P08581 25-1390): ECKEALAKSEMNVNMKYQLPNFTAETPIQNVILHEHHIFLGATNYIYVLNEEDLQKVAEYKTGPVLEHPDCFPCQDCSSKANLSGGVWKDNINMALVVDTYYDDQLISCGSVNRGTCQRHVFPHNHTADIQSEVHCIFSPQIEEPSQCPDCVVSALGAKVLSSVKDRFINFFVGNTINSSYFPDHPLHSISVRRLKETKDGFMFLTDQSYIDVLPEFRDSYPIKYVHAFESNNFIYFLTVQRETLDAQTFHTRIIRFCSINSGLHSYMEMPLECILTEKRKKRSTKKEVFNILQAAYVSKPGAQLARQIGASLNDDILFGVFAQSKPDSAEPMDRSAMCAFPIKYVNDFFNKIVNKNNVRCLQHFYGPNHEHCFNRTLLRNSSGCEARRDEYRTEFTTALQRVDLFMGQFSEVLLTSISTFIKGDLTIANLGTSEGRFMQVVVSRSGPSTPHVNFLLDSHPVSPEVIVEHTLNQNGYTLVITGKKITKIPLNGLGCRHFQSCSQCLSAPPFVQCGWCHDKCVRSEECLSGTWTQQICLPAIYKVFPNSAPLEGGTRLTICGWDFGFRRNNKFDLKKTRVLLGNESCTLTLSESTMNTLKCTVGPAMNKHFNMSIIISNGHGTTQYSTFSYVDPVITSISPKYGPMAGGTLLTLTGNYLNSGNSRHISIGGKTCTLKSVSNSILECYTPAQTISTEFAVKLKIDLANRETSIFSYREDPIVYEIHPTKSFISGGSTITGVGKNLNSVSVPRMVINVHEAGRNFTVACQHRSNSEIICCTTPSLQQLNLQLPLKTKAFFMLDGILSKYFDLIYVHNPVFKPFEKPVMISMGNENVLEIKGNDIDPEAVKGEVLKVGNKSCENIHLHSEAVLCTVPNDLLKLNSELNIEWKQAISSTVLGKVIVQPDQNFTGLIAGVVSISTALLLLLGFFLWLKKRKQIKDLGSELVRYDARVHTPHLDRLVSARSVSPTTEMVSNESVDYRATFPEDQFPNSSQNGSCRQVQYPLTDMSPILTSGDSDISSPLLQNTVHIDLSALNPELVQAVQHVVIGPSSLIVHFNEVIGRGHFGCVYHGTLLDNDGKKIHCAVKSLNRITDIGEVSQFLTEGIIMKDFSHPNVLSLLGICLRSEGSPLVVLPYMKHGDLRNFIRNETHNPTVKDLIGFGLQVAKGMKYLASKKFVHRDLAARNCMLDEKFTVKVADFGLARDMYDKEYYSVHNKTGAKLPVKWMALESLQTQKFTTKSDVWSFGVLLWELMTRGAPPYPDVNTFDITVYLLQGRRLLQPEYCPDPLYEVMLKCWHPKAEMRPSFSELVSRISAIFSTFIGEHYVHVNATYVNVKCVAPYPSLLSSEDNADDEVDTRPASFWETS
With `CC(c1ccc(O)cc1)c1nnc2n1N=C(c1ccccc1)CS2` (centres unmarked) [Compound 525], the Ki is below 100 nM.
In the case of `CS(=O)(=O)Nc1cccc(Cc2nnc3n2N=C(c2ccccc2)CS3)c1` [Compound 526] it was above 2000 nM; in that of `Fc1ccc(Cc2nnc3n2N=C(c2ccccc2)CS3)cc1` [Compound 527], above 2000 nM.
The figure for `CS(=O)(=O)c1ccc(Cc2nnc3n2N=C(c2ccccc2)CS3)cc1` [Compound 528] is above 2000 nM; for `c1ccc(C2=Nn3c(Cc4ccncc4)nnc3SC2)cc1` [Compound 529] it is above 2000 nM; for `COc1ccc(Cc2nnc3n2N=C(c2ccccc2)CS3)cc1` [Compound 530] it is 100 to 2000 nM.
Consider `COc1ccc(Cc2nnc3n2N=C(c2ccccc2)CS3)cc1F` [Compound 531], for which the Ki was above 2000 nM.
In the case of `CC(C)C[C@H](NC(=O)OCc1ccccc1)C1=Nn2c(Cc3ccc(O)cc3)nnc2SC1` [Compound 532] it was above 2000 nM; in that of `Oc1ccc(Cc2nnc3n2N=C(c2ccc4c(c2)OCCO4)CS3)cc1` [Compound 533], below 100 nM.
In the case of `CCOC(=O)C1=Nn2c(Cc3ccc(O)cc3)nnc2SC1` [Compound 534] it was 100 to 2000 nM.
The figure for `O=C1COc2ccc(C3=Nn4c(Cc5ccc(O)cc5)nnc4SC3)cc2N1` [Compound 535] is 100 to 2000 nM; for `CC1=Nn2c(Cc3ccc(O)cc3)nnc2SC1C` (centres unmarked) [Compound 536] it is above 2000 nM.
For the compound `O=C(N[C@@H](Cc1ccccc1)C1=Nn2c(Cc3ccc(O)cc3)nnc2SC1)OCc1ccccc1` [Compound 537], the Ki is above 2000 nM.
The figure for `Oc1ccc(Cc2nnc3n2N=C(c2ccncc2)CS3)cc1` [Compound 538] is 100 to 2000 nM; for `O=C(O)Cc1ccc(C2=Nn3c(Cc4ccc(O)cc4)nnc3SC2)s1` [Compound 539] it is 100 to 2000 nM.
In the case of `Oc1ccc(Cc2nnc3n2N=C(c2ccc4c(c2)OCO4)CS3)cc1` [Compound 540] it was below 100 nM; in that of `Oc1ccc(Cc2nnc3n2N=C(c2ccsc2)CS3)cc1` [Compound 541], below 100 nM; in that of `CC1=Nn2c(Cc3ccc(O)cc3)nnc2SC1` [Compound 542], 100 to 2000 nM.
In the case of `Oc1ccc(Cc2nnc3n2N=C(c2cccs2)CS3)cc1` [Compound 543] it was below 100 nM; in that of `c1csc(C2=Nn3c(Cc4ccc5c(c4)OCO5)nnc3SC2)c1` [Compound 544], below 100 nM.
With `c1csc(C2=Nn3c(Cc4ccncc4)nnc3SC2)c1` [Compound 545], the Ki was above 2000 nM.
In the case of `Fc1ccc(Cc2nnc3n2N=C(c2cccs2)CS3)cc1` [Compound 546] it was 100 to 2000 nM; in that of `COc1ccc(Cc2nnc3n2N=C(c2cccs2)CS3)cc1` [Compound 547], 100 to 2000 nM.

As usually defined, the Ki is the equilibrium dissociation constant of an inhibitor or competing ligand from its target.
